Reference: patent US11214564B2, “Compounds with thymine skeleton for use in medicine” (TECHNISCHE UNIVERSITÄT DRESDEN, priority 2019, dated 2022)

Target: HSP27 (Homo sapiens, UniProt P04792)
Assay: Aggregation assay: HSP27 chaperone activity on heat-induced aggregation of citrate synthase
Assay type: biochemical
Settings: compound 10 μM; 1.44 μM CS, 481 nM HSP27, 43° C., 500 nm
Protocol: To test how small molecules affect the chaperone activity of HSP27, misfolding and aggregation of citrate synthase (CS), a well-known in vitro client protein of HSP27, was measured. Citrate synthase misfolds and aggregates when exposed to heat shock at 43° C. This heat denaturation is prevented or delayed in the presence of HSP27 (CS+HSP27) (Jakob et al. (1993)). […] The samples were incubated at 43° C. and the aggregation behavior of CS was monitored in a spectrometer (PerkinElmer LS55) at a wavelength of 500 nm. Substances inhibiting HSP27's chaperone activity lead to continued denaturation of the client protein and its aggregation in solution. This inhibition correlates with the strength of the interaction between HSP27 and the test substance, which is related to its binding efficiency.
In the reference experiment BVDU (CS+HSP27+BVDU) was tested at a concentration of 750 μM as previously described (Heinrich et al. (2016)).
The compounds according to the invention were tested at a concentration of 10 μM.

HSP27, sequence (P04792 whole entry): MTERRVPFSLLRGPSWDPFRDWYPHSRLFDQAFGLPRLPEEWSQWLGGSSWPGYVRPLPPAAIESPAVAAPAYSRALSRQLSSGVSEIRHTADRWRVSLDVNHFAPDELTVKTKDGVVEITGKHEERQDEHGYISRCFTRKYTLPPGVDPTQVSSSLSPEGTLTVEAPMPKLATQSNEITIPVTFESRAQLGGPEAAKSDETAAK

Row | SMILES | aggregation value related to the value from reference experiment (CS + HSP27 + BVDU), which was set at 1.0
1 | COc1ccc(-c2cccc(CC(=O)Nc3ccc(-n4cc(C)c(=O)[nH]c4=O)cc3)c2)cc1Cl [Compound 1, 2-(3′-Chloro-4′-methoxy-[1,1′-biphenyl]-3-yl)-N-(4-(5-methyl-2,4-dioxo-3,4-dihydropyrimidin-1(2H)-yl)phenyl)acetamide] | 1.76
2 | Cc1cn(-c2ccc(NC(=O)Cc3cccc(-c4cccc(Cl)c4)c3)cc2)c(=O)[nH]c1=O [Compound 2, 2-(3′-chloro-[1,1′-biphenyl]-3-yl)-N-(4-(5-methyl-2,4-dioxo-3,4-dihydro-pyrimidin-1(2H)-yl)phenyl) acetamide] | 1.55
3 | Cc1cn(-c2ccc(NC(=O)Cc3cccc(-c4ccc(Cl)c(Cl)c4)c3)cc2)c(=O)[nH]c1=O [Compound 3, 2-(3′,4′-dichloro-[1,1′-biphenyl]-3-yl)-N-(4-(5-methyl-2,4-dioxo-3,4-dihydro-pyrimidin-1(2H)-yl)phenyl) acetamide] | 1.44
4 | Cc1ccc(-c2cccc(CC(=O)Nc3ccc(-n4cc(C)c(=O)[nH]c4=O)cc3)c2)cc1Cl [Compound 6, 2-(3′-chloro-4′-methyl-[1,1′-biphenyl]-3-yl)-N-(4-(5-methyl-2,4-dioxo-3,4-dihydropyrimidin-1(2H)-yl)phenyl) acetamide] | 1.38
5 | Cc1cn(-c2ccc(NC(=O)Cc3cccc(-c4ccc(Cl)cc4Cl)c3)cc2)c(=O)[nH]c1=O [Compound 7, 2-(2′,4′-dichloro-[1,1′-biphenyl]-3-yl)-N-(4-(5-methyl-2,4-dioxo-3,4-dihydro-pyrimidin-1(2H)-yl)phenyl) acetamide] | 1.35
6 | CC(C)Oc1ccc(-c2cccc(CC(=O)Nc3ccc(-n4ccc(=O)[nH]c4=O)cc3)c2)cc1Cl [Compound 8, 2-(3′-chloro-4′-isopropoxy-[1,1′-biphenyl]-3-yl)-N-(4-(2,4-dioxo-3,4-dihydro-pyrimidin-1(2H)-yl)phenyl) acetamide] | 1.34
7 | Cc1ccc(-c2cccc(CC(=O)Nc3ccc(-n4ccc(=O)[nH]c4=O)cc3C)c2)cc1Cl [Compound 10, 2-(3′-chloro-4′-methyl-[1,1′-biphenyl]-3-yl)-N-(4-(2,4-dioxo-3,4-dihydro-pyrimidin-1(2H)-yl)-2-methyl-phenyl)acetamide] | 1.3
8 | COc1ccc(-c2cccc(CC(=O)Nc3ccc(-n4ccc(=O)[nH]c4=O)cc3C)c2)cc1Cl [Compound 14, 2-(3′-chloro-4′-methoxy-[1,1′-biphenyl]-3-yl)-N-(4-(2,4-dioxo-3,4-dihydro-pyrimidin-1(2H)-yl)-2-methyl-phenyl)acetamide] | 1.2
9 | Cc1cn(-c2ccc(NC(=O)Cc3cccc(-c4ccc(Cl)cc4)c3)cc2)c(=O)[nH]c1=O [Compound 15, 2-(4′-chloro-[1,1′-biphenyl]-3-yl)-N-(4-(5-methyl-2,4-dioxo-3,4-dihydropyrimidin-1(2H)-yl)phenyl) acetamide] | 1.11
10 | O=C(Cc1cccc(-c2ccc(Cl)cc2)c1)Nc1ccc(-n2cc(F)c(=O)[nH]c2=O)cc1 [Compound 16, 2-(4′-chloro-[1,1′-biphenyl]-3-yl)-N-(4-(5-fluoro-2,4-dioxo-3,4-dihydro-pyrimidin-1(2H)-yl)phenyl) acetamide] | 1.04
11 | Cc1cc(-n2ccc(=O)[nH]c2=O)ccc1NC(=O)Cc1cccc(-c2ccc(Cl)c(Cl)c2)c1 [Compound 18, 2-(3′,4′-dichloro-[1,1′-biphenyl]-3-yl)-N-(4-(2,4-dioxo-3,4-dihydro-pyrimidin-1(2H)-yl)-2-methyl-phenyl)acetamide] | 1
12 | O=C(Cc1cccc(-c2ccc(Cl)cc2Cl)c1)Nc1ccc(-n2cc(F)c(=O)[nH]c2=O)cc1 [Compound 20, 2-(2′,4′-dichloro-[1,1′-biphenyl]-3-yl)-N-(4-(5-fluoro-2,4-dioxo-3,4-dihydro-pyrimidin-1(2H)-yl)phenyl) acetamide] | 0.96
13 | COc1cccc(-c2cccc(CC(=O)Nc3ccc(-n4cc(C)c(=O)[nH]c4=O)cc3)c2)c1 [Compound 22, 2-(3′-methoxy-[1,1′-biphenyl]-3-yl)-N-(4-(5-methyl-2,4-dioxo-3,4-dihydro-pyrimidin-1(2H)-yl)phenyl) acetamide] | 0.91
14 | Cc1cn(-c2ccc(NC(=O)Cc3cccc(-c4ccc(OC(C)C)c(Cl)c4)c3)cc2)c(=O)[nH]c1=O [Compound 23, 2-(3′-chloro-4′-isopropoxy-[1,1′-biphenyl]-3-yl)-N-(4-(5-methyl-2,4-dioxo-3,4-dihydropyrimidin-1(2H)-yl)phenyl) acetamide] | 1.33
15 | O=C(Cc1cccc(-c2ccc(Cl)cc2)c1)Nc1ccc(-n2ccc(=O)[nH]c2=O)cc1 [Compound 24, 2-(4′-chloro-[1,1′-biphenyl]-3-yl)-N-(4-(2,4-dioxo-3,4-dihydro-pyrimidin-1(2H)-yl)phenyl) acetamide] | 0.88

Continued, values first:

Row | aggregation value related to the value from reference experiment (CS + HSP27 + BVDU), which was set at 1.0 | SMILES
16 | 1.3 | Cc1cn(-c2ccc(NC(=O)Cc3cccc(-c4cccc(C(F)(F)F)c4)c3)cc2)c(=O)[nH]c1=O [Compound 9, N-(4-(5-methyl-2,4-dioxo-3,4-dihydro-pyrimidin-1(2H)-yl)phenyl)-2-(3′-(trifluoromethyl)-[1,1′-biphenyl]-3-yl)acetamide]
17 | 1.28 | Cc1cn(-c2ccc(NC(=O)Cc3cccc(-c4cccc(OC(F)(F)F)c4)c3)cc2)c(=O)[nH]c1=O [Compound 11, N-(4-(5-methyl-2,4-dioxo-3,4-dihydro-pyrimidin-1(2H)-yl)phenyl)-2-(3′-(trifluoro-methoxy)-[1,1′-biphenyl]-3-yl) acetamide]
18 | 1.21 | COc1ccc(-c2cccc(CC(=O)Nc3ccc(-n4ccc(=O)[nH]c4=O)c(Cl)c3)c2)cc1Cl [Compound 13, 2-(3′-chloro-4′-methoxy-[1,1′-biphenyl]-3-yl)-N-(3-chloro-4-(2,4-dioxo-3,4-dihydro-pyrimidin-1(2H)-yl)phenyl) acetamide]
19 | 1.01 | O=C(Cc1cccc(-c2cccc(OC(F)(F)F)c2)c1)Nc1ccc(-n2cc(Cl)c(=O)[nH]c2=O)cc1 [Compound 17, N-(4-(5-chloro-2,4-dioxo-3,4-dihydro-pyrimidin-1(2H)-yl)phenyl)-2-(3′-(trifluoro-methoxy)-[1,1′-biphenyl]-3-yl) acetamide]
20 | 0.97 | O=C(Cc1cccc(-c2cccc(OC(F)(F)F)c2)c1)Nc1ccc(-n2ccc(=O)[nH]c2=O)c(Cl)c1 [Compound 19, N-(3-chloro-4-(2,4-dioxo-3,4-dihydro-pyrimidin-1(2H)-yl)phenyl)-2-(3′-(trifluoro-methoxy)-[1,1′-biphenyl]-3-yl) acetamide]
21 | 0.94 | O=C(Cc1cccc(-c2ccc(Cl)c(Cl)c2)c1)Nc1ccc(-n2ccc(=O)[nH]c2=O)c(Cl)c1 [Compound 21, N-(3-chloro-4-(2,4-dioxo-3,4-dihydro-pyrimidin-1(2H)-yl)phenyl)-2-(3′,4′-dichloro-[1,1′-biphenyl]-3-yl)acetamide]
22 | 0.88 | COc1ccc(-c2cccc(CC(=O)Nc3ccc(-n4ccc(=O)[nH]c4=O)cc3F)c2)cc1Cl [Compound 25, 2-(3′-chloro-4′-methoxy-[1,1′-biphenyl]-3-yl)-N-(4-(2,4-dioxo-3,4-dihydro-pyrimidin-1(2H)-yl)-2-fluoro-phenyl)acetamide]
23 | 0.85 | O=C(Cc1cccc(-c2cccc(Cl)c2)c1)Nc1ccc(-n2ccc(=O)[nH]c2=O)cc1 [Compound 26, 2-(3′-chloro-[1,1′-biphenyl]-3-yl)-N-(4-(2,4-dioxo-3,4-dihydro-pyrimidin-1(2H)-yl)phenyl) acetamide]
24 | 0.83 | COc1ccc(-c2cccc(CC(=O)Nc3ccc(-n4ccc(=O)[nH]c4=O)cc3)c2)cc1Cl [Compound 27, 2-(3′-chloro-4′-methoxy-[1,1′-biphenyl]-3-yl)-N-(4-(2,4-dioxo-3,4-dihydro-pyrimidin-1(2H)-yl)phenyl) acetamide]
25 | 0.82 | O=C(Cc1cccc(-c2cccc(OC(F)(F)F)c2)c1)Nc1ccc(-n2ccc(=O)[nH]c2=O)cc1F [Compound 28, N-(4-(2,4-dioxo-3,4-dihydro-pyrimidin-1(2H)-yl)-2-fluoro-phenyl)-2-(3′-(trifluoro-methoxy)-[1,1′-biphenyl]-3-yl) acetamide]
26 | 0.8 | Cc1ccc(-c2cccc(CC(=O)Nc3ccc(-n4ccc(=O)[nH]c4=O)cc3)c2)cc1Cl [Compound 29, 2-(3′-chloro-4′-methyl-[1,1′-biphenyl]-3-yl)-N-(4-(2,4-dioxo-3,4-dihydro-pyrimidin-1(2H)-yl)phenyl) acetamide]
